Reference: patent US20030148970A1, “Methods for specifically inhibiting histone deacetylase-4” (priority 2001, published 2003)

Key:
[1] = system: T24; test: Cell Death Detection ELISA apoptosis, T24; type: cell-based, human; conditions: 48 Hour Treatment; TSA at 100 ng/ml
Protocol: (§1) In order to determine the effect of HDAC OSDNs on cell growth and cell death through apoptosis, A549 or T24 cells, MDAmb231 cells, and HMEC cells (ATCC, Manassas, Va.) were treated with HDAC OSDNs as previously described.
(§2) For the apoptosis study, cells were analyzed using the Cell Death Detection ELISA Plus kit (Roche Diagnostic GmBH, Mannheim, Germany) according to the manufacturer's directions. Typically, 10,000 cells were plated in 96-well tissue culture dishes for 2 hours before harvest and lysis. Each sample was analyzed in duplicate. ELISA reading was done using a MR700 plate reader (DYNEX Technology, Ashford, Middlesex, England) at 410 nm. The reference was set at 490 nm.

[2] = system: murine erythroleukemia cells; conditions: Yoshida et al. 1987; cited from earlier work
[3] = system: Bax mRNA; test: RNase protection assay, Bax in A549; type: cell-based, human; conditions: TSA 250 ng/ml, 16 hours
Protocol: (§7) As a control, A549 cells were treated by lipofectin with or without TSA (250 ng/ml) treatment for 16 hours. These RNase protection assays were done according to the following procedure. Total RNA from cells was prepared using “RNeasy miniprep kit” from QIAGEN following the manufacturer's manual. Labeled probes used in the protection assays were synthesized using “hStress-1 multiple-probe template sets” from Pharmingen (San Diego, Calif., U.S.A.) according to the manufacturer's instructions. Protection procedures were performed using “RPA II™ Ribonuclease Protection Assay Kit” from Ambion, (Austin, Tx.) following the manufacturer's instructions. Quantitation of the bands from autoradiograms was done by using Cyclone™ Phosphor System (Packard Instruments Co. Inc., Meriden, Conn.).

[4] = system: p21 mRNA; test: RNase protection assay, p21 in A549; type: cell-based, human; conditions: TSA 250 ng/ml, 16 hours
Protocol: as §7

[5] = system: A549; test: Cell Death Detection ELISA apoptosis, A549; type: cell-based, human; conditions: 48 Hour Treatment; TSA at 100 ng/ml
Protocol: as §1, §2

[6] = system: MDAmb231; test: Cell Death Detection ELISA apoptosis, MDAmb231; type: cell-based, human; conditions: 48 Hour Treatment; TSA at 100 ng/ml
Protocol: as §1, §2

[7] = system: HMEC; test: Cell Death Detection ELISA apoptosis, HMEC; type: cell-based, human; conditions: 48 Hour Treatment; TSA at 100 ng/ml; normal cells
Protocol: as §1, §2

[8] = system: mammalian HDAC; conditions: Yoshida et al. 1990; cited from earlier work
[9] = system: GADD45 mRNA; test: RNase protection assay, GADD45 in A549; type: cell-based, human; conditions: TSA 250 ng/ml, 16 hours
Protocol: as §7

[10] = system: human cancer cells; test: cell growth analysis (trypan blue) and apoptosis, cancer cells; type: cell-based; conditions: 50 nM
Protocol: as §1, §2
Cells were harvested and cell numbers counted by trypan blue exclusion using a hemocytometer. Percentage of inhibition was calculated as (100-AS cell numbers/control cell numbers)%.

[11] = system: human HDAC-2 RNA; test: antisense ODN screen in T24 cells, Northern blot, HDAC-2; type: cell-based; conditions: 100 nM, 24 hours
Protocol: Twenty-four phosphorothioate ODNs containing sequences complementary to the 5′ or 3′ UTR of the human HDAC-2 gene (GenBank Accession No. U31814) were screened as above. […] HDAC-2 MM was created as a control; compared to the antisense oligo, it contains a 7-base mismatch.
(§3) Briefly, human A549 and/or T24 human bladder carcinoma cells were seeded in 10 cm tissue culture dishes one day prior to oligonucleotide treatment. The cell lines were obtained from the American Type Culture Collection (ATCC) (Manassas, Va.) and were grown under the recommended culture conditions. Before the addition of the oligonucleotides, cells were washed with PBS (phosphate buffered saline). Next, lipofectin transfection reagent (GIBCO BRL Mississauga, Ontario, Calif.), at a concentration of 6.25 μg/ml, was added to serum free OPTIMEM medium (GIBCO BRL, Rockville, Md.), which was then added to the cells. The oligonucleotides to be screened were then added directly to the cells (i.e., one oligonucleotide per plate of cells). Mismatched oligonucleotides were used as controls. The same concentration of oligonucleotide (e.g., 50 nM) was used per plate of cells for each oligonucleotide tested.
(§4) Cells were harvested, and total RNAs were analyzed by Northern blot analysis. Briefly, total RNA was extracted using RNeasy miniprep columns (QIAGEN). […]

[12] = system: human HDAC-2 protein; test: Western blot of HDAC-2 protein in A549 cells; type: cell-based; conditions: 50 nM, 48 hours
Protocol: (§5) OSDN treatment conditions were as previously described.
(§6) Cells were lysed in buffer containing 1% Triton X-100, 0.5% sodium deoxycholate, 5 mM EDTA, 25 mM Tris-HCl, pH 7.5, plus protease inhibitors. Total protein was quantified by the protein assay reagent from Bio-Rad (Hercules, Calif.). 100 ug of total protein was analyzed by SDS-PAGE. Next, total protein was transferred onto a PVDF membrane and probed with various HDAC-specific primary antibodies. Rabbit anti-HDAC-1 (H-51), anti-HDAC-2 (H-54) antibodies (Santa Cruz Biotechnologies, Santa Cruz, Calif.) were used at 1:500 dilution. Rabbit anti-HDAC-3 antibody (Sigma, St. Louis, Mo.) was used at a dilution of 1:1000. Anti-HDAC-4 antibody was prepared as previously described (Wang, S. H. et al., (1999) Mol. Cell. Biol. 19:7816-27), and was used at a dilution of 1:1000. Anti-HDAC-6 antibody was raised by immunizing rabbits with a GST fusion protein containing a fragment of HDAC-6 protein (amino acid #990 to #1216, GenBank Accession No. AAD29048). Rabbit antiserum was tested and found only to react specifically to the human HDAC-6 isoform. HDAC-6 antiserum was used at 1:500 dilution in Western blots to detect HDAC-6 in total cell lysates. Horse Radish Peroxidase conjugated secondary antibody was used at a dilution of 1:5000 to detect primary antibody binding. […]

[13] = system: human HDAC-3 RNA; test: antisense ODN screen in T24 cells, Northern blot, HDAC-3; type: cell-based; conditions: 100 nM, 24 hours
Protocol: Twenty-one phosphorothioate ODNs containing sequences complementary to the 5′ or 3′ UTR of the human HDAC-3 gene (GenBank Accession No. AF039703) were screened as above. […] HDAC-3 MM oligo was created as a control; compared to the antisense oligo, it contains a a 6-base mismatch.
as §3, §4

[14] = system: human HDAC-3 protein; test: Western blot of HDAC-3 protein in A549 cells; type: cell-based; conditions: 50 nM, 48 hours
Protocol: as §5, §6

[15] = system: human HDAC-6 RNA; test: antisense ODN screen in T24 cells, Northern blot, HDAC-6; type: cell-based; conditions: 100 nM, 24 hours
Protocol: Thirteen phosphorothloate ODNs containing sequences complementary to the 5′ or 3′ untranslated regions of the human HDAC-6 gene (GenBank Accession No. AJ011972) were screened as above. […] HDAC-6 MM oligo was created as a control; compared to the antisense oligo, it contains a 7-base mismatch.
as §3, §4

[16] = system: human HDAC-6 protein; test: Western blot of HDAC-6 protein in A549 cells; type: cell-based; conditions: 50 nM, 48 hours
Protocol: as §5, §6

Compound	Apoptosis, T24 [1]	induction of differentiation in murine erythroleukemia cells [2]	fold induction of transcription, Bax, A549, TSA vs lipofectin [3] [fold]	fold induction of transcription, p21, A549, TSA vs lipofectin [4] [fold]	Apoptosis, A549 [5]	Apoptosis, MDAmb231 [6]	Apoptosis, HMEC [7]	inhibition of mammalian HDAC [8]	fold induction of transcription, GADD45, A549, TSA vs lipofectin [9] [fold]	effect on cancer cell growth and apoptosis [10]	antisense activity, HDAC-2 RNA expression [11]	expression of HDAC-2 protein [12]	antisense activity, HDAC-3 RNA expression [13]	expression of HDAC-3 protein [14]	antisense activity, HDAC-6 RNA expression [15]	expression of HDAC-6 protein [16]
CC(/C=C/C(=O)NO)=C\[C@@H](C)C(=O)c1ccc(N(C)C)cc1 [TSA, (R)-Trichostatin A]	++ (“++”: 3-5× fold)	potent inducer of differentiation	0.8	2.8	++ (“++”: 3-5× fold)	++ (“++”: 3-5× fold)	+ (“+”: 2-3× fold)	potent inhibitor of mammalian HDAC	0.6							
HDAC-2 AS: 5′-GCTGAGCTGTTCTGATTTGG-3′, antisense to human HDAC2 3′-UTR, U31814 (chemistry not given here)	− (“−”: <= 2× fold over non-specific background)				− (“−”: <= 2× fold over non-specific background)	− (“−”: <= 2× fold over non-specific background)	− (“−”: <= 2× fold over non-specific background)			minimal effect on cancer cell growth inhibition	antisense activity to human HDAC-2	specifically inhibits the expression of the respective HDAC isotype protein				
HDAC-3 AS: 5′-CGCTTTCCTTGTCATTGACA-3′, antisense to human HDAC3 3′-UTR, AF039703 (chemistry not given here)	− (“−”: <= 2× fold over non-specific background)				− (“−”: <= 2× fold over non-specific background)	− (“−”: <= 2× fold over non-specific background)	− (“−”: <= 2× fold over non-specific background)			no effect on cancer cell growth or apoptosis			antisense activity to human HDAC-3	specifically inhibits the expression of the respective HDAC isotype protein		
HDAC-6 AS: 5′-CAGGCTGGAATGAGCTACAG-3′, antisense to human HDAC6 3′-UTR, AJ011972 (chemistry not given here)	− (“−”: <= 2× fold over non-specific background)				− (“−”: <= 2× fold over non-specific background)	− (“−”: <= 2× fold over non-specific background)	− (“−”: <= 2× fold over non-specific background)			no effect on cancer cell growth or apoptosis					antisense activity to human HDAC-6	specifically inhibits the expression of the respective HDAC isotype protein
